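Each compound was tested at five concentrations against cells in 96-well plates for 48 hours. TGI: concentration producing complete growth inhibition.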
Experiments:
Assay in all cases: DTP human tumour cell line panel, 48 h
[1] = tested on: SNB-78 CNS
[2] = tested on: OVCAR-4 ovarian
[3] = tested on: SK-MEL-2 melanoma
[4] = tested on: MOLT-4 leukemia
[5] = tested on: SNB-19 CNS
[6] = tested on: SF-539 CNS
[7] = tested on: HOP-92 NSCLC
[8] = tested on: OVCAR-5 ovarian
[9] = tested on: SK-MEL-28 melanoma
[10] = tested on: UACC-62 melanoma
[11] = tested on: CCRF-CEM leukemia
[12] = tested on: U251 CNS
[13] = tested on: LOX IMVI melanoma
[14] = tested on: HCT-15 colon
[15] = tested on: LXFL 529 NSCLC
[16] = tested on: HL-60(TB) leukemia
[17] = tested on: DLD-1 colon
[18] = tested on: DMS 114 small cell lung
[19] = tested on: HCC-2998 colon
[20] = tested on: HCT-116 colon
[21] = tested on: UO-31 renal
[22] = tested on: HOP-62 NSCLC
[23] = tested on: A549 NSCLC
[24] = tested on: SK-MEL-5 melanoma
[25] = tested on: IGROV1 ovarian
[26] = tested on: OVCAR-8 ovarian
[27] = tested on: RPMI-8226 leukemia
[28] = tested on: RXF 393 renal
[29] = tested on: SF-268 CNS
[30] = tested on: ACHN renal
[31] = tested on: XF 498 CNS
[32] = tested on: SK-OV-3 ovarian
[33] = tested on: 786-0 renal
[34] = tested on: NCI-H226 lung
[35] = tested on: RXF-631 renal
[36] = tested on: SF-295 CNS
[37] = tested on: MALME-3M melanoma
[38] = tested on: HOP-18 NSCLC
[39] = tested on: OVCAR-3 ovarian
[40] = tested on: CAKI-1 renal
[41] = tested on: M14 melanoma
[42] = tested on: EKVX NSCLC
[43] = tested on: M19-MEL melanoma
[44] = tested on: HT29 colon
[45] = tested on: NCI-H522 lung
[46] = tested on: UACC-257 melanoma
[47] = tested on: SN12C renal
[48] = tested on: SW-620 colon
[49] = tested on: K-562 leukemia
[50] = tested on: TK-10 renal
[51] = tested on: KM12 colon
[52] = tested on: NCI-H23 lung
[53] = tested on: NCI-H460 lung
[54] = tested on: A498 renal
[55] = tested on: SR leukemia
[56] = tested on: DMS 273 small cell lung
[57] = tested on: KM20L2 colon
[58] = tested on: SNB-75 CNS
[59] = tested on: COLO 205 colon

CC1=C(C(=O)CC(=O)C(=O)Nc2cc(C)ccc2C)Sc2ccccc2N1
TGI [1]: > 100 µM | TGI [2]: > 100 µM | TGI [3]: > 100 µM | TGI [4]: > 100 µM | TGI [5]: > 100 µM | TGI [6]: > 100 µM | TGI [7]: > 100 µM | TGI [8]: > 100 µM | TGI [9]: > 100 µM | TGI [10]: > 100 µM | TGI [11]: > 100 µM | TGI [12]: > 100 µM | TGI [13]: > 100 µM | TGI [14]: > 100 µM | TGI [15]: > 100 µM | TGI [16]: > 100 µM | TGI [17]: > 100 µM | TGI [18]: > 100 µM | TGI [19]: > 100 µM | TGI [20]: > 100 µM | TGI [21]: > 100 µM | TGI [22]: > 100 µM | TGI [23]: > 100 µM | TGI [24]: > 100 µM | TGI [25]: > 100 µM | TGI [26]: > 100 µM | TGI [27]: > 100 µM | TGI [28]: > 100 µM | TGI [29]: > 100 µM | TGI [30]: > 100 µM | TGI [31]: > 100 µM | TGI [32]: > 100 µM | TGI [33]: > 100 µM | TGI [34]: > 100 µM | TGI [35]: > 100 µM | TGI [36]: > 100 µM | TGI [37]: > 100 µM | TGI [38]: > 100 µM | TGI [39]: > 100 µM | TGI [40]: > 100 µM | TGI [41]: > 100 µM | TGI [42]: > 100 µM | TGI [43]: > 100 µM | TGI [44]: > 100 µM | TGI [45]: > 100 µM | TGI [46]: > 100 µM | TGI [47]: > 100 µM | TGI [48]: > 100 µM | TGI [49]: > 100 µM | TGI [50]: > 100 µM | TGI [51]: > 100 µM | TGI [52]: > 100 µM

CN(C(=O)C12C3C4C5C3C1(C(=O)C13C6C7C8C6C1C8C73)C5C42)C(C)(C)C (stereo not given)
TGI [1]: > 50 µM | TGI [2]: > 50 µM | TGI [3]: > 50 µM | TGI [4]: > 50 µM | TGI [5]: > 50 µM | TGI [6]: > 50 µM | TGI [7]: > 50 µM | TGI [8]: > 50 µM | TGI [9]: > 50 µM | TGI [10]: > 50 µM | TGI [53]: > 50 µM | TGI [11]: > 37.9 µM | TGI [12]: > 50 µM | TGI [13]: > 29.7 µM | TGI [14]: > 32.2 µM | TGI [15]: > 50 µM | TGI [16]: > 26.9 µM | TGI [17]: > 34.7 µM | TGI [18]: > 37.6 µM | TGI [19]: > 50 µM | TGI [20]: 18.5 µM | TGI [21]: > 50 µM | TGI [22]: > 50 µM | TGI [54]: > 50 µM | TGI [55]: > 50 µM | TGI [23]: > 50 µM | TGI [24]: > 50 µM | TGI [25]: > 50 µM | TGI [26]: > 50 µM | TGI [27]: > 42.9 µM | TGI [28]: > 50 µM | TGI [29]: > 50 µM | TGI [30]: > 50 µM | TGI [31]: > 50 µM | TGI [32]: > 50 µM | TGI [33]: > 50 µM | TGI [34]: > 50 µM | TGI [36]: > 50 µM | TGI [56]: > 30 µM | TGI [37]: > 50 µM | TGI [38]: > 50 µM | TGI [39]: > 50 µM | TGI [40]: > 50 µM | TGI [41]: > 50 µM | TGI [42]: > 50 µM | TGI [57]: > 50 µM | TGI [43]: > 50 µM | TGI [44]: > 50 µM | TGI [45]: > 50 µM | TGI [46]: > 50 µM | TGI [47]: > 50 µM | TGI [48]: > 34 µM | TGI [49]: > 47.3 µM | TGI [50]: > 50 µM | TGI [51]: > 50 µM | TGI [52]: > 50 µM | TGI [58]: > 50 µM | TGI [59]: > 50 µM

Reference: PubChem BioAssay (NCI)
